Reference: patent US20190328721A1, “METHOD OF ACTIVATING DENDRITIC CELLS” (KOREA INSTITUTE OF SCIENCE AND TECHNOLOGY, priority 2018, published 2019)

Tested on: dendritic cells
Assay: Flow cytometry of dendritic cells from B16F10-Ova-bearing mice (maturation, subsets, cross presentation)
Format: in vivo
Description: To confirm the effect of the ROCK inhibitor Y27632 on the maturation process of dendritic cells, the inventors administered Y27362 to B16F10-Ova-bearing cancer model animals according to the same administration schedule as in Example 2-1, and the expression of CD40 and CD86, which are dendritic cell maturation markers, was analyzed by flow cytometry.
Recently, it has been shown that CD103 (corresponding to CD141 in humans)-positive dendritic cells (CD103 DC) play an important role in cancer cell phagocytosis and T cell anticancer immunity among dendritic cells (Broz et al., Cancer Cell, 26 (5): 638-652, 2014). Therefore, in order to analyze the effect of the ROCK inhibitor on CD103 DC, Y27632 was administered to B16F10-Ova-bearing cancer model mice according to the administration schedule described in the above Example 2-1, tumor tissues and tumor-draining lymph nodes were excised, and then flow cytometry analysis was performed using antibodies specifically binding to dendritic cell markers (CD11b, CD103 and CD8). It was confirmed that the ratio of CD103 DC was increased by Y27632 in both the tumor-draining lymph nodes (FIG. 15A) and the tumor tissues (FIG. 15B). On the other hand, in the case of CD11b-positive and CD8-positive dendritic cells, no change due to administration of Y27632 was observed.
The present inventors analyzed cross presentation activity which is one of functions of dendritic cells via flow cytometry analysis using an antibody capable of detecting a cancer antigen (H-2K^b-Ova) capable of activating T cells, through flow cytometry analysis using an antibody (H-2K^b monoclonal antibody, Invitrogen, USA). It was confirmed that the cross presentation of CD103 DC was increased by Y27632 in both tumor-draining lymph nodes (FIG. 15C) and tumor tissues (FIG. 15D).
Further, the present inventors analyzed CD40, which is one of the markers of dendritic cell function capable of activating T cells and a DC maturation marker of dendritic cells, by flow cytometry analysis using anti-CD40 antibodies. As shown in FIGS. 15E and 15F, it was confirmed that the maturation of CD103 DC was increased by Y27632 in the tumor-draining lymph nodes.
The present inventors analyzed a series of immunological induction processes occurring after the phagocytosis against cancer cells or cancer-specific antigens in order to analyze the mechanism of the combination therapy for the anti-cancer immune response. Specifically, in order to confirm the effect of the combination therapy on the dendritic cell maturation, Y27632 and doxorubicin were administered to B16F10-Ova-bearing cancer model mice as described above, and then tumor-draining lymph nodes were isolated and the expression of CD40 and CD86, which are dendritic cell maturation markers, was analyzed by flow cytometry analysis.
Further, in order to confirm the effect of the combined treatment on the cross presentation process to the dendritic cells, the present inventors administered Y27632 and doxorubicin to B16F10-Ova-bearing cancer model mice as described above, isolated the tumor-draining lymph nodes, and then cross presentation activity, which is one of functions of dendritic cells, was analyzed via flow cytometry analysis using an antibody capable of detect a cancer antigen (H-2K^b-Ova) capable of activating T cells, through flow cytometry analysis using an antibody (H-2K^b monoclonal antibody, Invitrogen, USA).
The present inventors then investigated the effect of the combination of the drugs on the maturation process of dendritic cells. Specifically, the tumor-draining lymph nodes were isolated after administration of Y27632 and/or cisplatin in the B16F10-Ova-bearing cancer model, and the expression level of CD40 and CD86, the dendritic cell maturation markers, was analyzed by flow cytometry. As shown in FIG. 19C and 19D, there was no influence on the maturation of dendritic cells when Y27632 alone, cisplatin alone, or the combination of the two were administered (FIGS. 19C and 19D). […]

[1] = tumor-draining lymph nodes, cisplatin study
[2] = tumor-draining lymph nodes, doxorubicin 5 mg/kg, Y27632 10 mg/kg

C[C@@H](N)[C@H]1CC[C@H](C(=O)Nc2ccncc2)CC1 [Y27632]
ratio of CD8-positive dendritic cells (mouse, in vivo): no change
ratio of CD11b-positive dendritic cells (mouse, in vivo): no change
cross presentation (H-2Kb-Ova) of CD103 DC (tumor tissues): increased
ratio of CD103 DC (tumor tissues): increased
expression of CD40 and CD86 in dendritic cells (tumor-draining lymph node, schedule of Example 2-1): did not affect
cross presentation (H-2Kb-Ova) of CD103 DC (tumor-draining lymph nodes): increased
cross-presentation (H-2Kb-Ova) in CD8 DCs (tumor-draining lymph nodes): increased
maturation of CD103 DC (CD40) (tumor-draining lymph nodes): increased
ratio of CD103 DC (tumor-draining lymph nodes): increased
cross-presentation function (H-2Kb-Ova) of dendritic cells [1]: increase
maturation of dendritic cells (CD40 and CD86) [1]: no influence
antigenic cross presentation (H-2Kb-Ova) in the dendritic cells [2]: did not significantly increase
dendritic cell maturation (expression of CD40 and CD86) [2]: no effect
